Reference: ChEMBL document CHEMBL1126469, “On the significance of the C-terminal primary amide in cholecystokinin” (Bioorg Med Chem Lett, 1993)

Legend:
[1] = molecular target: T1, Gastrin/cholecystokinin type B receptor (Rattus norvegicus, UniProt P30553); assay: In vitro binding affinity against Cholecystokinin type B receptor of rat pancreatic acini
T1 sequence (P30553 whole entry): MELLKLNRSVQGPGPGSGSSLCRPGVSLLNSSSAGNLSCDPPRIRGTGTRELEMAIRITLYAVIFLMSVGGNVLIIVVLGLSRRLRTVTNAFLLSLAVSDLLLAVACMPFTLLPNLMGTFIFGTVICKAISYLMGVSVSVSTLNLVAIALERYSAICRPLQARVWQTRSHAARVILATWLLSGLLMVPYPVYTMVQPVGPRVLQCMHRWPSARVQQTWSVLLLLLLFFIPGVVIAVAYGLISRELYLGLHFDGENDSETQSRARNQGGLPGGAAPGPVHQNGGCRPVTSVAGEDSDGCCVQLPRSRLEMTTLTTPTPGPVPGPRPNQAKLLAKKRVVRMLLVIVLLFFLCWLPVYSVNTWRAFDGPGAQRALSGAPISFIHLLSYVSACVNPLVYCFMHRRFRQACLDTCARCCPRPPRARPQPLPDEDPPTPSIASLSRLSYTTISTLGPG

Rattus norvegicus [2] = organism: Rattus norvegicus; assay: The compound was tested for its ability to stimulate amylase secretion from rat pancreatic acini; format: functional, organism-based
Rattus norvegicus [3] = organism: Rattus norvegicus; assay: Antagonist activity against amylase secretion from rat pancreatic acini; format: functional, organism-based

| Compound | IC50 [1] | EC50 (Rattus norvegicus [2]; Rattus norvegicus) | other results |
| --- | --- | --- | --- |
| CCCC[C@H](NC(=O)C(Cc1c[nH]c2ccccc12)NC(=O)CNC(=O)[C@H](CCCC)NC(=O)[C@H](Cc1ccc(OS(=O)(=O)O)cc1)NC(=O)OC(C)(C)C)C(=O)N[C@@H](CC(=O)O)C(=O)NCCc1ccccc1 (single isomer, unassigned) | 0.048 µM | – | EC50 (Rattus norvegicus [2]): 0.07 µM |
| CCCC[C@H](NC(=O)[C@H](Cc1ccc(OS(=O)(=O)O)cc1)NC(=O)OC(C)(C)C)C(=O)NCC(=O)N[C@H](Cc1c[nH]c2ccccc12)C(=O)N[C@@H](CCCC)C(=O)N[C@@H](CC(=O)O)C(=O)N(C)CCc1ccccc1 | – | – | IC50 (Rattus norvegicus [3]): 26 µM |
| CCCC[C@H](NC(=O)[C@H](Cc1ccc(OS(=O)(=O)O)cc1)NC(=O)OC(C)(C)C)C(=O)NCC(=O)N[C@@H](Cc1c[nH]c2ccccc12)C(=O)N[C@@H](CCCC)C(=O)N[C@@H](CC(=O)O)C(=O)NCCc1ccccc1 | 0.1 µM | – | EC50 (Rattus norvegicus [2]): 0.03 µM |
| CCCC[C@H](NC(=O)[C@H](Cc1ccc(OS(=O)(=O)O)cc1)NC(=O)OC(C)(C)C)C(=O)NCC(=O)N[C@H](Cc1c[nH]c2ccccc12)C(=O)N[C@@H](CCCC)C(=O)N[C@@H](CC(=O)O)C(=O)NCCc1ccccc1 | 0.5 µM | – | IC50 (Rattus norvegicus [3]): 30 µM |

Further lines, with some results ahead:

| IC50 [1] | EC50 (Rattus norvegicus [2]; Rattus norvegicus) | Compound | other results |
| --- | --- | --- | --- |
| – | 9.3 µM | CCCC[C@H](NC(=O)[C@H](Cc1ccc(OS(=O)(=O)O)cc1)NC(=O)OC(C)(C)C)C(=O)NCC(=O)N[C@H](Cc1c[nH]c2ccccc12)C(=O)N[C@@H](CCCC)C(=O)N[C@@H](CC(=O)O)C(=O)NCC(c1ccccc1)c1ccccc1 | – |
| – | 0.7 µM | CCCC[C@H](NC(=O)[C@H](Cc1ccc(OS(=O)(=O)O)cc1)NC(=O)OC(C)(C)C)C(=O)NCC(=O)N[C@@H](Cc1c[nH]c2ccccc12)C(=O)N[C@@H](CCCC)C(=O)N[C@@H](CC(=O)O)C(=O)NC(Cc1ccccc1)Cc1ccccc1 | – |
| – | 86 µM | CCCC[C@H](NC(=O)[C@H](Cc1ccc(OS(=O)(=O)O)cc1)NC(=O)OC(C)(C)C)C(=O)NCC(=O)N[C@H](Cc1c[nH]c2ccccc12)C(=O)N[C@@H](CCCC)C(=O)N[C@@H](CC(=O)O)C(=O)NC(Cc1ccccc1)Cc1ccccc1 | – |
| – | 0.032 µM | CCCC[C@H](NC(=O)[C@H](Cc1ccc(OS(=O)(=O)O)cc1)NC(=O)OC(C)(C)C)C(=O)NCC(=O)N[C@@H](Cc1c[nH]c2ccccc12)C(=O)N[C@@H](CCCC)C(=O)N[C@@H](CC(=O)O)C(=O)NCC(c1ccccc1)c1ccccc1 | – |
